In patent US12391737B2, “Soluble NPY2 receptor agonists” (Boehringer Ingelheim International GmbH, priority 2020, dated 2025):

Assays:
[1] = target: T1, Human Neuropeptide Y2 Receptor (Homo sapiens, UniProt P49146); assay: Radioligand binding competition assay (RLB); conditions: Table 3, 125I-PYY(1-36) competition; read-out: Ki
T1 construct: purchased CHEMICON HTS066M
T1 sequence (P49146 1-381): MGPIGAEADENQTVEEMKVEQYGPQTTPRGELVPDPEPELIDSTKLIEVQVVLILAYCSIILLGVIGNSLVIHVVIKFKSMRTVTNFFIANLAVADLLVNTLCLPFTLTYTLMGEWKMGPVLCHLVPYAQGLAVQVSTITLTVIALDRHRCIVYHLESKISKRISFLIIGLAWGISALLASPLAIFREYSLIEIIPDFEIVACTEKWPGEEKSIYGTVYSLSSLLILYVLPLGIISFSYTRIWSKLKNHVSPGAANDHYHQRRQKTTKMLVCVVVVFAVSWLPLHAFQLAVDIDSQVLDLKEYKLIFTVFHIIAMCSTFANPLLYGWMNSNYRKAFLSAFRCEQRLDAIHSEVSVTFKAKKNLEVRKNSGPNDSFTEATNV
Summary of the method: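 Displacement of radioligand is measured after 2 h at room temperature with receptor membranes in Mg2+/Ca2+ HEPES buffer, pH 7.4. Filter-bound radioactivity is counted and IC50 obtained from curve fitting.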

Solubility determination = conditions: for Sol6: pH 6; for Sol7: pH 7
Summary of the method: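 Shake-flask style: 10 mg/ml peptide (TFA salt), 0.1 M sodium diphosphate pH 6.4/7.0, 600 rpm, 2 h, RT; filter; dilute 1 mg/ml in 50% MeCN; RP-UPLC, 0–100% B over 2 min, 50 °C. Solubility = sample/control area ratio. Final pH recorded.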

| Ki [1] | Sol6 (Solubility determination) | Sol7 (Solubility determination) | Compound |
| --- | --- | --- | --- |
| 5.73 nM | 9.3 mg/mL | 9.1 mg/mL | CC(C)CC(=O)N[C@@H](C)C(=O)N1CCC[C@H]1C(=O)N[C@@H](CCC(=O)O)C(=O)N[C@@H](CCCCNC(=O)CCCCCNC(=O)CC[C@H](NC(=O)CCCCCCCCCCCCCCCCC(=O)O)C(=O)O)C(=O)N1CCC[C@H]1C(=O)N[C@@H](CCC(=O)O)C(=O)N[C@@H](CCC(=O)O)C(=O)N[C@@H](CC(=O)O)C(=O)N[C@@H](C)C(=O)N[C@H](C(=O)N1CCC[C@H]1C(=O)N[C@@H](CCC(=O)O)C(=O)N[C@@H](CCC(=O)O)C(=O)N[C@@H](CO)C(=O)N[C@@H](CCC(N)=O)C(=O)N[C@@H](CCCNC(=N)N)C(=O)N[C@@H](Cc1ccc(O)cc1)C(=O)N[C@@H](Cc1ccc(O)cc1)C(=O)N[C@H](C(=O)N[C@@H](CO)C(=O)N[C@@H](CC(C)C)C(=O)N[C@@H](CCCNC(=N)N)C(=O)N[C@@H](Cc1c[nH]cn1)C(=O)N[C@@H](Cc1ccc(O)cc1)C(=O)N[C@@H](Cc1ccc(O)cc1)C(=O)N[C@@H](CC(N)=O)C(=O)N[C@@H](Cc1c[nH]c2ccccc12)C(=O)N[C@@H](CC(C)C)C(=O)N[C@H](C(=O)N[C@@H](CCCNC(=N)N)C(=O)N[C@@H](CCC(N)=O)C(=O)N[C@@H](CCCNC(=N)N)C(=O)N[C@@H](Cc1ccc(O)cc1)C(N)=O)[C@@H](C)O)C(C)C)[C@@H](C)O [Compound 119, N{alpha-4}-(3-methylbutanoyl)-N{epsilon-7}-(6-[(4S)-4-carboxy-4-(17-carboxyheptadecanamido)butanamido]hexanoyl)-[4A,7K,9E,13T,17S,18Q,22V,28Y,30W,31L]-hPYY(4-36)] |
| 1.98 nM | 9.8 mg/mL | 9.9 mg/mL | CC(C)CC(=O)N[C@@H](C)C(=O)N1CCC[C@H]1C(=O)N[C@@H](CCC(=O)O)C(=O)N[C@@H](CCCCNC(=O)CCCCCNC(=O)CC[C@H](NC(=O)CCCCCCCCCCCCCCCCC(=O)O)C(=O)O)C(=O)N1CCC[C@H]1C(=O)N[C@@H](CCC(=O)O)C(=O)N[C@@H](CCC(=O)O)C(=O)N1CCC[C@H]1C(=O)N[C@@H](C)C(=O)N[C@H](C(=O)N1CCC[C@H]1C(=O)N[C@@H](CCC(=O)O)C(=O)N[C@@H](CCC(=O)O)C(=O)N[C@@H](CC(C)C)C(=O)N[C@@H](CCC(N)=O)C(=O)N[C@@H](CCCNC(=N)N)C(=O)N[C@@H](Cc1ccc(O)cc1)C(=O)N[C@@H](Cc1ccc(O)cc1)C(=O)N[C@H](C(=O)N[C@@H](CO)C(=O)N[C@@H](CC(C)C)C(=O)N[C@@H](CCCNC(=N)N)C(=O)N[C@@H](Cc1c[nH]cn1)C(=O)N[C@@H](Cc1ccc(O)cc1)C(=O)N[C@@H](Cc1ccc(O)cc1)C(=O)N[C@@H](CC(N)=O)C(=O)N[C@@H](Cc1c[nH]c2ccccc12)C(=O)N[C@@H](CC(C)C)C(=O)N[C@H](C(=O)N[C@@H](CCCNC(=N)N)C(=O)N[C@@H](CCC(N)=O)C(=O)N[C@@H](CCCNC(=N)N)C(=O)N[C@@H](Cc1ccc(O)cc1)C(N)=O)[C@@H](C)O)C(C)C)[C@@H](C)O [Compound 42, N{alpha-4}-(3-methylbutanoyl)-N{epsilon-7}-(6-[(4S)-4-carboxy-4-(17-carboxyheptadecanamido)butanamido]hexanoyl)[4A,7K,9E,11P,13T,18Q,22V,28Y,30W,31L]-hPYY(4-36)] |
| 2.8 nM | 9.3 mg/mL | 9.2 mg/mL | CC[C@H](C)[C@H](NC(=O)[C@H](CCC(=O)O)NC(=O)[C@H](CCC(=O)O)NC(=O)[C@@H]1CCCN1C(=O)[C@@H](NC(=O)[C@H](C)NC(=O)[C@H](CC(=O)O)NC(=O)[C@H](CCC(=O)O)NC(=O)[C@H](CCC(=O)O)NC(=O)[C@@H]1CCCN1C(=O)[C@H](CCCCNC(=O)CCCCCNC(=O)CC[C@H](NC(=O)CCCCCCCCCCCCCCCCC(=O)O)C(=O)O)NC(=O)[C@H](CCC(=O)O)NC(=O)[C@@H]1CCCN1C(=O)[C@H](C)NC(=O)CC(C)C)[C@@H](C)O)C(=O)N[C@@H](CCC(N)=O)C(=O)N[C@@H](CCCNC(=N)N)C(=O)N[C@@H](Cc1ccc(O)cc1)C(=O)N[C@@H](Cc1ccc(O)cc1)C(=O)N[C@@H](CCC(N)=O)C(=O)N[C@@H](CO)C(=O)N[C@@H](CC(C)C)C(=O)N[C@@H](CCCNC(=N)N)C(=O)N[C@@H](Cc1c[nH]cn1)C(=O)N[C@@H](Cc1ccc(O)cc1)C(=O)N[C@@H](Cc1ccc(O)cc1)C(=O)N[C@@H](CC(N)=O)C(=O)N[C@@H](Cc1c[nH]c2ccccc12)C(=O)N[C@@H](CC(C)C)C(=O)N[C@H](C(=O)N[C@@H](CCCNC(=N)N)C(=O)N[C@@H](CCC(N)=O)C(=O)N[C@@H](CCCNC(=N)N)C(=O)N[C@@H](Cc1ccc(O)cc1)C(N)=O)[C@@H](C)O [Compound 164, N{alpha-4}-(3-methylbutanoyl)-N{epsilon-7}-(6-[(4S)-4-carboxy-4-(17-carboxyheptadecanamido)butanamido]hexanoyl)-[4A,7K,9E,13T,17I,18Q,22Q,28Y,30W,31L]-hPYY(4-36)] |
| 3.97 nM | 8.7 mg/mL | 10.0 mg/mL | CC(C)CC(=O)N[C@@H](C)C(=O)N1CCC[C@H]1C(=O)N[C@@H](C)C(=O)N[C@@H](CCCCNC(=O)CCCCCNC(=O)CC[C@H](NC(=O)CCCCCCCCCCCCCCCCC(=O)O)C(=O)O)C(=O)N1CCC[C@H]1C(=O)N[C@@H](CCC(=O)O)C(=O)N[C@@H](CCC(=O)O)C(=O)N[C@@H](CC(=O)O)C(=O)N[C@@H](C)C(=O)N[C@@H](CO)C(=O)N1CCC[C@H]1C(=O)N[C@@H](CCC(=O)O)C(=O)N[C@@H](CCC(=O)O)C(=O)N[C@@H](CO)C(=O)N[C@@H](CCC(N)=O)C(=O)N[C@@H](CCCNC(=N)N)C(=O)N[C@@H](Cc1ccc(O)cc1)C(=O)N[C@@H](Cc1ccc(O)cc1)C(=O)N[C@H](C(=O)N[C@@H](CO)C(=O)N[C@@H](CC(C)C)C(=O)N[C@@H](CCCNC(=N)N)C(=O)N[C@@H](Cc1c[nH]cn1)C(=O)N[C@@H](Cc1ccc(O)cc1)C(=O)N[C@@H](Cc1ccc(O)cc1)C(=O)N[C@@H](CC(N)=O)C(=O)N[C@@H](Cc1c[nH]c2ccccc12)C(=O)N[C@@H](CC(C)C)C(=O)N[C@H](C(=O)N[C@@H](CCCNC(=N)N)C(=O)N[C@@H](CCC(N)=O)C(=O)N[C@@H](CCCNC(=N)N)C(=O)N[C@@H](Cc1ccc(O)cc1)C(N)=O)[C@@H](C)O)C(C)C [Compound 149, N{alpha-4}-(3-methylbutanoyl)-N{epsilon-7}-(6-[(4S)-4-carboxy-4-(17-carboxyheptadecanamido)butanamido]hexanoyl)-[4A,6A,7K,9E,17S,18Q,22V,28Y,30W,31L]-hPYY(4-36)] |
| 8.65 nM | >10.0 mg/mL | 10.0 mg/mL | CC(C)CC(=O)N[C@@H](C)C(=O)N1CCC[C@H]1C(=O)N[C@@H](CCC(=O)O)C(=O)N[C@@H](CCCCNC(=O)CCCCCNC(=O)CC[C@H](NC(=O)CCCCCCCCCCCCCCCCC(=O)O)C(=O)O)C(=O)N1CCC[C@H]1C(=O)N[C@@H](CCC(=O)O)C(=O)N[C@@H](CCC(=O)O)C(=O)N[C@@H](CC(=O)O)C(=O)N[C@@H](C)C(=O)N[C@H](C(=O)N1CCC[C@H]1C(=O)N[C@@H](CCC(=O)O)C(=O)N[C@@H](CCC(=O)O)C(=O)N[C@@H](CC(C)C)C(=O)N[C@@H](CCC(N)=O)C(=O)N[C@@H](CCC(N)=O)C(=O)N[C@@H](Cc1ccc(O)cc1)C(=O)N[C@@H](Cc1ccc(O)cc1)C(=O)N[C@H](C(=O)N[C@@H](CO)C(=O)N[C@@H](CC(C)C)C(=O)N[C@@H](CCCNC(=N)N)C(=O)N[C@@H](Cc1c[nH]cn1)C(=O)N[C@@H](Cc1ccc(O)cc1)C(=O)N[C@@H](Cc1ccc(O)cc1)C(=O)N[C@@H](CC(N)=O)C(=O)N[C@@H](Cc1c[nH]c2ccccc12)C(=O)N[C@@H](CC(C)C)C(=O)N[C@H](C(=O)N[C@@H](CCCNC(=N)N)C(=O)N[C@@H](CCC(N)=O)C(=O)N[C@@H](CCCNC(=N)N)C(=O)N[C@@H](Cc1ccc(O)cc1)C(N)=O)[C@@H](C)O)C(C)C)[C@@H](C)O [Compound 177, N{alpha-4}-(3-methylbutanoyl)-N{epsilon-7}-(6-[(4S)-4-carboxy-4-(17-carboxyheptadecanamido)butanamido]hexanoyl)-[4A,7K,9E,13T,18Q,19Q,22V,28Y,30W,31L]-hPYY(4-36)] |
